Earlier results in US20070082063A1, “Risk assessment and correction of membrane damage of the upper GI tract” (priority 2005, published 2007).

What was measured:
[1] = humans or animals with normal membrane arachidonate content
[2] = animals with reduced membrane arachidonate

SMILES | effect on serum or tissue arachidonate content [1] | effect on membrane arachidonate content [2]
CCCCC/C=C\C/C=C\C/C=C\C/C=C\CCCC(=O)O [ARA, arachidonic acid] | little effect | 
CCCCC/C=C\C/C=C\C/C=C\CCCCC(=O)O [GLA, gamma-linolenic acid] |  | significantly increase
